Earlier results, collected in patent US20060159736A1, “Liposome formulations of boronic acid compounds” (priority 2004, published 2006).
Where two headings read alike, the source gives them in different places.

Assays:
[1] = system: human prostate cancer xenograft; settings: human prostate xenograft models
[2] = given intravenously once or twice weekly; patients with solid tumors
lung cancer xenograft = lung cancer xenograft models
[3] = intravenous bolus on days 1, 4, 8, and 11 of a 3-week cycle
[4] = system: cancer tissues (breast, ovarian, prostate, lung) and tumors (pancreatic tumors, lymphomas, melanoma)
tumor lines = settings: range of tumor lines

CC(C)C[C@H](NC(=O)[C@H](Cc1ccccc1)NC(=O)c1cnccn1)B(O)O [bortezomib]
antitumor activity [1]: had antitumor activity
maximum tolerated dose [2]: 1.3 mg/m^2
antitumor activity (lung cancer xenograft): had antitumor activity
maximum tolerated dose [3]: 1.56 mg/m^2
activity against cancer tissues and tumors [4]: activity against a variety of cancer tissues
cytotoxicity (tumor lines): showed cytotoxicity against a range of tumor lines
